# Measurements as given in ChEMBL document CHEMBL1144980, “Lupane triterpenes and derivatives with antiviral activity” (Bioorg Med Chem Lett, 2003).
# Key:
# [1] = tested on: Influenza A virus; experiment: Antiviral activity against influenza A virus determined in chicken embryo cells (CEC) by plaque reduction assay method.; format: functional, organism-based
# [2] = tested on: Human alphaherpesvirus 1; experiment: Antiviral activity against HSV-1 determined by inhibition of viral cytopathic effect (CPE) in rhabdomyosarcoma (RD) cell line; format: functional, organism-based, herpes simplex virus; settings: Human alphaherpesvirus 1, RD
# [3] = tested on: Influenza A virus; experiment: Ratio of maximum nontoxic concentration (MNTC) against Influenza virus A to that of effective concentration (EC50); format: functional
# [4] = tested on: Human alphaherpesvirus 1; experiment: Ratio of maximum nontoxic concentration (MNTC) against HSV-1 to that of effective concentration (EC50); format: functional, herpes simplex virus
Compound,EC50 [1],EC50 [2],Ratio [3],Ratio [4]
C=C(C)[C@@H]1CC[C@]2(N=C=O)CC[C@@]3(C)C(CC[C@@H]4[C@@]5(C)CCC(=O)C(C)(C)C5CC[C@]43C)C12 (some centres not stated),> 221 µM,> 221 µM,<1,<1
C=C(C)[C@@H]1CCC2(NC(=O)N[C@H](CCSC)C(=O)OC)CC[C@@]3(C)C(CC[C@@H]4[C@@]5(C)CCC(=O)C(C)(C)C5CC[C@]43C)C12 (some centres not stated),27.1 µM,2.2 µM,3,298.5
C=C(C)[C@@H]1CCC2(NC(=O)N[C@H](CCSC)C(=O)OC)CC[C@@]3(C)C(CC[C@@H]4[C@@]5(C)CC/C(=N\O)C(C)(C)C5CC[C@]43C)C12 (some centres not stated),2.3 µM,0.6 µM,35.2,67.6
C=C(C)[C@@H]1CC[C@]2(C(=O)N[C@@H](CCSC)C(=O)OC)CC[C@@]3(C)C(CC[C@@H]4[C@@]5(C)CCC(=O)C(C)(C)C5CC[C@]43C)C12 (some centres not stated),14.2 µM,> 666 µM,11.9,<1
C=C(C)[C@@H]1CC[C@]2(C(=O)NN)CC[C@@]3(C)C(CC[C@@H]4[C@@]5(C)CC/C(=N\O)C(C)(C)C5CC[C@]43C)C12 (some centres not stated),2 µM,> 51.6 µM,25.2,<1
C=C(C)[C@@H]1CCC2(NC(=O)N[C@H](CC(C)C)C(=O)OC)CC[C@@]3(C)C(CC[C@@H]4[C@@]5(C)CCC(=O)C(C)(C)C5CC[C@]43C)C12 (some centres not stated),5 µM,14.6 µM,>67,11.5
C=C(C)[C@@H]1CC[C@]2(C(=O)N[C@H](C(=O)OC)C(C)C)CC[C@@]3(C)C(CC[C@@H]4[C@@]5(C)CCC(=O)C(C)(C)C5CC[C@]43C)C12 (some centres not stated),13.3 µM,142 µM,3.4,2.5
C=C(C)[C@@H]1CC[C@]2(C(=O)O)CC[C@]3(C)[C@H](CC[C@@H]4[C@@]5(C)CC[C@H](O)C(C)(C)[C@@H]5CC[C@]43C)[C@@H]12 [BETULINIC ACID],> 219 µM,8.2 µM,<1,53.3
C=C(C)[C@@H]1CC[C@]2(C(=O)N[C@@H](CC(C)C)C(=O)OC)CC[C@@]3(C)C(CC[C@@H]4[C@@]5(C)CCC(=O)C(C)(C)C5CC[C@]43C)C12 (some centres not stated),72.3 µM,1370 µM,1.2,<1
C=C(C)[C@@H]1CC[C@]2(C(=O)NCCO)CC[C@@]3(C)C(CC[C@@H]4[C@@]5(C)CCC(=O)C(C)(C)C5CC[C@]43C)C12 (some centres not stated),> 755 µM,> 377 µM,<1,<1
C=C(C)[C@@H]1CCC2(NC(=O)N[C@@H](C(=O)OC)C(C)C)CC[C@@]3(C)C(CC[C@@H]4[C@@]5(C)CCC(=O)C(C)(C)C5CC[C@]43C)C12 (some centres not stated),> 85.7 µM,0.2 µM,<1,454
C=C(C)[C@@H]1CC[C@]2(C(=O)NCCCCCCCCCCCCCCCCCC)CC[C@@]3(C)C(CC[C@@H]4[C@@]5(C)CCC(=O)C(C)(C)C5CC[C@]43C)C12 (some centres not stated),55.5 µM,1.4 µM,4.6,177
C=C(C)[C@@H]1CC[C@]2(C(=O)NN)CC[C@@]3(C)C(CC[C@@H]4[C@@]5(C)CCC(=O)C(C)(C)C5CC[C@]43C)C12 (some centres not stated),–,10 µM,–,21.3
C=C(C)[C@@H]1CC[C@]2(C(=O)N[C@@H](C)C(=O)OC)CC[C@@]3(C)C(CC[C@@H]4[C@@]5(C)CCC(=O)C(C)(C)C5CC[C@]43C)C12 (some centres not stated),> 234 µM,663 µM,<1,1.4
C=C(C)[C@@H]1CC[C@]2(C(N)=O)CC[C@@]3(C)C(CC[C@@H]4[C@@]5(C)CCC(=O)C(C)(C)C5CC[C@]43C)C12 (some centres not stated),0.7 µM,220 µM,1333.3,<1
C=C(C)[C@@H]1CC[C@]2(C(=O)O)CC[C@]3(C)[C@H](CC[C@@H]4[C@@]5(C)CCC(=O)C(C)(C)[C@@H]5CC[C@]43C)[C@@H]12 [BETUNOLIC ACID],5.7 µM,2.5 µM,9.6,43.9
